≈ marks a conversion by molar mass, not a printed value.
Experiments:
[1] = target: T1, E. coli LpxC C63A (Escherichia coli, UniProt P0A725, C63A); test: fluorescence-based E. coli LpxC C63A enzyme inhibition assay; assay type: biochemical; conditions: Ki E. coli LpxC C63A, from IC50 via Cheng–Prusoff
T1 construct: made in house; host or cells: E. coli BL21(DE3)
Protocol: In order to determine the inhibitory activities of the compounds of interest toward E. coli LpxC, a fluorescence-based enzyme assay was deployed, in which the formed deacetylated natural product UDP-3-O-[(R)-3-hydroxymyristoyl]glucosamine (2) is transformed into a fluorescent isoindole with o-phthaldialdehyde and 2-mercaptoethanol.[48],[49] […] The KM of E. coli LpxC C63A was determined experimentally using a mass spectrometry-based LpxC assay (Figure S8, Supporting Information, vide infra).
A fluorescence-based microplate assay for LpxC activity was performed as described by Clements et al.[48] The wells in a black, nonbinding, 96-well fluorescence microplate (Greiner Bio One, Frickenhausen) were filled with 93 μL of 26.9 μM UDP-3-O-[(R)-3-hydroxymyristoyl]-N-acetylglucosamine in assay buffer [40 mM sodium morpholinoethanesulfonic acid (pH 6.0), 80 μM dithiothreitol, 0.02% Brij 35]. In order to assay the inhibitors at final concentrations from 20 nM up to 20 μM, 2 μL of a respective dilution of the compounds in DMSO were added. The addition of 5 μL of a solution of purified LpxC (10 μg mL^–1) in assay buffer led to final concentrations of 25 μM UDP-3-O-[(R)-3-hydroxymyristoyl]-N-acetylglucosamine, 15 nM E. coli LpxC C63A, 2% DMSO, and from 20 nM up to 20 μM inhibitor. The microplate was incubated for 30 min at 37 °C in a plate shaker. Then, the biochemical reaction was stopped by adding 40 μL of 0.625 M sodium hydroxide. The reaction mixture was further incubated for 10 min and neutralized by adding 40 μL of 0.625 M acetic acid. The deacetylated product UDP-3-O-[(R)-3-hydroxymyristoyl]glucosamine was converted into a fluorescing isoindole by adding 120 μL of an o-phthaldialdehyde-2-mercaptoethanol solution, which was prepared by dissolving 10 mg of o-phthaldialdehyde in 1 mL of methanol, diluting the mixture with 24 mL of a sodium borate buffer (0.1 M), and finally adding 2.5 μL of 2-mercaptoethanol.[49] Fluorescence was measured with a TriStar^2 S LB 942 plate reader (Berthold, Bad Wildbad) at 340 nm excitation and 460 nm emission wavelengths. Each assay was performed at least three times on separate days. The IC50 values were calculated via Probit-log concentration graphs with the aid of the software Origin and were subsequently converted into Ki values using the Cheng–Prusoff equation.[75],[76]

[2] = test system: E. coli D22; test: MIC, broth microdilution; assay type: cell-based; conditions: Escherichia coli, 20 h, 37 °C, LB
Protocol: (§1) Besides measuring the inhibitory activities toward E. coli LpxC C63A, the antibacterial activities of the synthesized hydroxamic acids were evaluated by determining their minimal inhibitory concentrations (MIC) in broth dilution tests as well as by performing disc diffusion assays (Table 1).
(§2) The MIC values of the compounds were determined by means of the microdilution method using 96-well plates.
(§3) The overnight suspension was diluted 1:1000 in fresh LB. 10 μL of a 2-fold dilution series of the compounds in DMSO and 90 μL of LB were dispensed to each well of a 96-well plate. Then, 100 μL of the inoculated medium was added, resulting in 5 × 10^5 cfu mL^–1, 5% DMSO, and a final concentration range of the test compounds between 64 and 0.016 μg mL^–1. The plates were incubated for 20 h at 37 °C. The MIC was defined as the lowest concentration of the compounds that prevented visible growth after incubation. Each assay was performed at least three times on separate days.

[3] = test system: E. coli BL21(DE3); test: MIC, broth microdilution; assay type: cell-based; conditions: Escherichia coli, 20 h, 37 °C, LB
Protocol: as §1, §2, §3

[4] = test system: E. coli D22; test: disc diffusion assay; assay type: cell-based; conditions: 0.15 μmol per 6 mm disc
Protocol: as §1
(§4) The disc diffusion assays against E. coli BL21(DE3) and the defective strain E. coli D22 were performed as follows: liquid cultures of the bacteria were grown overnight in lysogeny broth (LB)[73] at 37 °C and 200 rpm. 150 μL of an overnight cell suspension was spread evenly onto LB agar plates. 0.15 μmol of each compound (dissolved in 10 or 15 μL DMSO) were applied onto circular filter paper (Ø = 6 mm, Cytiva). Pure DMSO, serving as a negative control, and CHIR-090, serving as a positive control, were also spotted. The agar plates were incubated overnight at 37 °C, and the diameter of the zone of growth inhibition was measured for each compound. Each assay was performed at least three times on separate days.

[5] = test system: E. coli BL21(DE3); test: disc diffusion assay; assay type: cell-based; conditions: 0.15 μmol per 6 mm disc
Protocol: as §1, §4

[6] = test system: LpxC–9 complex; test: NMR-ILOE (interligand NOESY) of fragment hits with LpxC and 9; conditions: fragment hits binding the LpxC–9 complex by STD and WaterLogsy; 6 μM LpxC
Protocol: In order to find fragments specifically addressing the UDP-binding pocket, which can be linked to the LpxC inhibitors, a fragment screen was performed against LpxC bound to 9. First, 650 fragments in cocktails of five were tested for binding to the LpxC–9 complex using STD-NMR and WaterLogsy experiments. Then, fragment hits identified as potential binders were tested one by one against the LpxC–9 complex by STD-NMR and WaterLogsy experiments performed under identical experimental conditions. A total of 97 fragment hits were identified as binders, leading to a hit rate of 15%.
Then, NMR-ILOE experiments were performed with selected fragment hits in the presence of LpxC and the unsubstituted hydroxamic acid 9. This allowed the identification of fragments that bind in the enzyme’s UDP-binding pocket near the methylene group in the α-position of the inhibitor’s hydroxamate moiety. Weak interligand NOESY peaks were observed between inhibitor 9 and nine fragments. By contrast, no interligand NOESY peaks were observed between compound 9 and the other ten fragments. […] Unexpectedly, we also observed interligand NOESY between the fragment protons and protons of the morpholino moiety.
Standard 1D and STD NMR spectra were acquired at 20 °C with a Bruker 600 MHz NMR spectrometer equipped with a 5 mm cryoprobe. Parameters for the STD experiments (saturation frequency and saturation time) were identical for all samples. […] STD saturation time was 2 s. WaterLOGSY mixing time was 1.5 s. Two NOESY experiments were recorded with mixing times of 0.6 and 0.3 s. STD and WaterLOGSY spectra were recorded with the same NMR tubes containing 3 μM LpxC, compound 9 at 500 μM, and fragments at 500 μM. For NOESY experiments, NMR tubes contained 6 μM LpxC.
Temperature was set to 293 K for all NMR experiments.

[7] = target: T2, LasB (Pseudomonas aeruginosa, UniProt Q02RJ6); test: FRET-based LasB in vitro inhibition assay; assay type: biochemical, P. aeruginosa PA14
T2 construct: The elastase LasB of P. aeruginosa is a secreted metalloprotease; endogenous in cells; host or cells: P. aeruginosa PA14 culture supernatant
Protocol: Purification of LasB from P. aeruginosa PA14 supernatant and the subsequent performance of the FRET-based in vitro inhibition assay was performed as described previously.[66] The TACE (ADAM-17) inhibitor screening kit was purchased from Sigma-Aldrich (Saint Louis, MO). MMPs 1–3 along with the SensoLyte 520 Generic MMP Activity Kit Fluorimetric were purchased from AnaSpec (Fremont, CA, USA). The assays were performed according to the guidelines of the respective manufacturer. Fluorescence signals were measured using a CLARIOstar plate reader (BMG Labtech, Ortenberg, Germany).

T1 sequence (P0A725 whole entry C63A): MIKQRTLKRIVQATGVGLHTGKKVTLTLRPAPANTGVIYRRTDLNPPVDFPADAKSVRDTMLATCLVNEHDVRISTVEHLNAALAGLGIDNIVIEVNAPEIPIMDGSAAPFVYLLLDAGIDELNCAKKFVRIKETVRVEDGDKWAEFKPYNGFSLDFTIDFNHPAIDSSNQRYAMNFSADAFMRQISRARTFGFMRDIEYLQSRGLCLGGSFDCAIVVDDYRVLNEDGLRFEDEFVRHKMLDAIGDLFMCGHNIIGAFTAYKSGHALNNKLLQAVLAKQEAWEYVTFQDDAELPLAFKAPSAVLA
T2 sequence (Q02RJ6 198-498): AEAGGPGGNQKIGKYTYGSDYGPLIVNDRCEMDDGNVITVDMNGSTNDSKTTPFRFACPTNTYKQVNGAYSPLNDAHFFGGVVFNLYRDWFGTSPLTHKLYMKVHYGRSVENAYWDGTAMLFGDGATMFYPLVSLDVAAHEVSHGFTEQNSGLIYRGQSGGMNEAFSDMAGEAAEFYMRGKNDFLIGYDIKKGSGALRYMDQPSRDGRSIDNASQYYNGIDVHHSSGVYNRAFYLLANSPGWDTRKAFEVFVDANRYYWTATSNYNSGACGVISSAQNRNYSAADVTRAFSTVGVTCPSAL

Row | Compound | Ki [1] [nM] | MIC [2] [µg/mL] | MIC [3] [µg/mL] | Inhibition zone E. coli D22 [4] [mm] | Inhibition zone E. coli BL21(DE3) [5] [mm] | Inter-Ligand NOESY peaks between the fragment and 9 [6] | LasB Inhibition at 20 μM ([7]; 20 μM) | inhibition at 20 µM ([7]; read-out: LasB Inhibition at 20 μM) [%]
1 | O=C(NC[C@@H](OCc1ccc(C#Cc2ccc(CN3CCOCC3)cc2)cc1)C(=O)NO)c1ccc(Oc2ccccc2)cc1 [(R)-13d] | > 2540 | > 16 | > 16 | ≤6 | ≤6 | – | – | –
2 | COc1ccc2[nH]ccc2c1 [F1] | – | – | – | – | – | yes | – | –
3 | O=C(NO)[C@@H](CN(Cc1ccccc1)Cc1ccccc1)OCc1ccc(C#Cc2ccc(CN3CCOCC3)cc2)cc1 [(R)-37, (R)-3-(Dibenzylamino)-N-hydroxy-2-[(4-{[4-(morpholinomethyl)phenyl]ethynyl}benzyl)oxy]propanamide] | > 2540 | > 16 | > 16 | ≤6 | ≤6 | – | – | –
4 | O=C(NC[C@@H](OCc1ccc(C#Cc2ccc(CN3CCOCC3)cc2)cc1)C(=O)NO)c1ccccc1 [(R)-13a, (R)-N-{3-(Hydroxyamino)-2-[(4-{[4-(morpholinomethyl)phenyl]ethynyl}benzyl)oxy]-3-oxopropyl}benzamide] | 2560 ± 1080 | 4 (≈ 7.79 µM) | – | 18.0 ± 2.0 | 9.7 ± 0.6 | – | – | –
5 | c1ccc2[nH]ccc2c1 [F3] | – | – | – | – | – | yes | – | –
6 | O=C(NO)[C@@H](CNCc1ccccc1)OCc1ccc(C#Cc2ccc(CN3CCOCC3)cc2)cc1 [(R)-12a, (R)-3-(Benzylamino)-N-hydroxy-2-[(4-{[4-(morpholinomethyl)phenyl]ethynyl}benzyl)oxy]propanamide] | 5900 ± 2020 | 4 (≈ 8.01 µM) | 32 (≈ 64 µM) | 20.0 ± 1.8 | 10.7 ± 1.2 | – | – | –
7 | O=C1OCc2ccccc21 [F18] | – | – | – | – | – | no | – | –
8 | c1ccc(-c2cc[nH]n2)cc1 [F14] | – | – | – | – | – | yes | – | –
9 | O=C(NC[C@@H](OCc1ccc(C#Cc2ccc(CN3CCOCC3)cc2)cc1)C(=O)NO)c1ccc2[nH]ccc2c1 [(R)-13j] | 1150 ± 317 | 16 (≈ 29 µM) | > 16 | 11.7 ± 1.2 | ≤6 | – | – | –
10 | O=C(NC[C@@H](OCc1ccc(C#Cc2ccc(CN3CCOCC3)cc2)cc1)C(=O)NO)c1cc2ccccc2[nH]1 [(R)-13g] | > 2540 | 16 (≈ 29 µM) | > 16 | 9.0 ± 1.0 | ≤6 | – | – | –
11 | Oc1ccc(-n2ccnc2)cc1 [F2] | – | – | – | – | – | yes | – | –
12 | O=C(NC[C@@H](OCc1ccc(C#Cc2ccc(CN3CCOCC3)cc2)cc1)C(=O)NO)c1cnc2ccccc2c1 [(R)-13f] | > 2540 | > 16 | > 16 | 10.3 ± 1.2 | ≤6 | – | – | –
13 | O=C(NC[C@@H](OCc1ccc(C#Cc2ccc(CN3CCOCC3)cc2)cc1)C(=O)NO)c1ccc(-c2ccccc2)cc1 [(R)-13b] | > 2540 | > 16 | > 16 | ≤6 | ≤6 | – | – | –
14 | OCc1ccc(-n2cccn2)cc1 [F9] | – | – | – | – | – | no | – | –
15 | O=c1ccn([C@@H]2O[C@H](CO)[C@@H](O)[C@H]2O)c(=O)[nH]1 [F15] | – | – | – | – | – | no | – | –
16 | Cc1noc(C)c1C(=O)NC[C@@H](OCc1ccc(C#Cc2ccc(CN3CCOCC3)cc2)cc1)C(=O)NO [(R)-13n] | > 2540 | 8 (≈ 15 µM) | > 16 | 16.3 ± 1.6 | ≤6 | – | no inhibitory activity | < 10
17 | c1ccc2c(c1)CCCN2 [F5] | – | – | – | – | – | yes | – | –
18 | Cn1c(O)cc2ccccc21 [F13] | – | – | – | – | – | no | – | –
19 | c1ccc2[nH]ncc2c1 [F12] | – | – | – | – | – | no | – | –
20 | c1ccc(Nc2ccccn2)nc1 [F10] | – | – | – | – | – | no | – | –
21 | Nc1c2c(nc3ccccc13)CCCC2 [F7] | – | – | – | – | – | no | – | –
22 | O=C(NC[C@@H](OCc1ccc(C#Cc2ccc(CN3CCOCC3)cc2)cc1)C(=O)NO)c1cc(-c2ccccc2)[nH]n1 [(R)-13m] | > 2540 | > 16 | > 16 | 9.7 ± 1.3 | ≤6 | – | – | –
23 | O=C(NC[C@@H](OCc1ccc(C#Cc2ccc(CN3CCOCC3)cc2)cc1)C(=O)NO)c1cccc(-c2ccccc2)c1 [(R)-13c] | > 2540 | > 16 | > 16 | ≤6 | ≤6 | – | – | –
24 | O=C(NC[C@@H](OCc1ccc(C#Cc2ccc(CN3CCOCC3)cc2)cc1)C(=O)NO)c1ccc2ccccc2n1 [(R)-13e] | > 2540 | 8 (≈ 14.2 µM) | > 16 | 12.7 ± 1.6 | ≤6 | – | – | –
25 | O=C(NO)[C@@H](COCc1ccccc1)OCc1ccc(C#Cc2ccc(CN3CCOCC3)cc2)cc1 [(R)-11a, (R)-3-(Benzyloxy)-N-hydroxy-2-[(4-{[4-(morpholinomethyl)phenyl]ethynyl}benzyl)oxy]propanamide] | 3620 ± 640 | 2 (≈ 4 µM) | > 32 | 15.7 ± 1.2 | ≤6 | – | – | –
